# Measurements: US9006442B2, “Cannabinoid receptor modulators” (Lupin Limited, priority 2011, dated 2015)
# Target: hCB2 (Homo sapiens, UniProt P34972)
# Test: cAMP determination in functional hCB2-CHO stable cells (HTRF)
# Assay type: cell-based
# Settings: not given
# Description: In-Vitro Assay Method for Determination of cAMP in Functional hCB2—CHO Stable Cells:
# Recombinant CHO-hCB2 cells (procured from Perkin Elmer Inc. USA) were propagated and maintained in Ham's F-12 complete medium containing 10% heat inactivated FBS (Sigma.UK) and 1× penstrep. For assay, 0.1×10^6 to 1.0×10^6 CHO-hCB2 cells were seeded in T-25 flask and grown to mid-log phase in culture media without antibiotics for 2-3 days. […] The test is performed in 96^1/2 area black well plates. For agonist testing, 20 μl cells/well were mixed with 20 μl of sample and 10 μl of forskolin (with final concentration of 10 μM) and incubated for 20 to 40 min at room temperature in incubator. The plate was then processed for the cAMP determination using cAMP Femto-2 HTRF kit (Cisbio, Germany) as per the manual.
# The concentration of compound required to stimulate a half-maximal response (EC50) was determined using the GraphPad Prism software (version 5).
# Sequence of hCB2 (P34972 whole entry): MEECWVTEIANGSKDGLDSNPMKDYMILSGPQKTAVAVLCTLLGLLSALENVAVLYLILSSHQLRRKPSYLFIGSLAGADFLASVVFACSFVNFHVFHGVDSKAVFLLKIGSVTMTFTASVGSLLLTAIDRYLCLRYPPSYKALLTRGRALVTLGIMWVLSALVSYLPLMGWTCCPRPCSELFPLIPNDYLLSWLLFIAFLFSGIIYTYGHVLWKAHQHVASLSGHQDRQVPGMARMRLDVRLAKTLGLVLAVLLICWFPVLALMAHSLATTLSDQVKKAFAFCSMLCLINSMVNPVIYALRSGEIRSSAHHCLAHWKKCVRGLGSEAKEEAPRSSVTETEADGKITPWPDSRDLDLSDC
row,SMILES,EC50 [nM]
1,"O=C(c1ccc(Nc2ccc(Cl)cc2Cl)c2ccccc12)N1CCOCC1 [Example-197, (4-((2,4-Dichlorophenyl)amino)naphthalen-1-yl)(morpholino)methanone]",10 to 1000
2,"Cc1cccc2c(Nc3ccc(F)c(Cl)c3)ncc(C(=O)N3CC4CC(C3)O4)c12 [Example-60, 6-Oxa-3-azabicyclo[3.1.1]heptan-3-yl(1-((3-chloro-4-fluorophenyl)amino)-5-methylisoquinolin-4-yl)methanone]",10 to 1000
3,"Cc1cccc2c(Nc3cccc(CF)c3)ncc(C(=O)N3CCOCC3)c12 [Example-12, (1-(((3-Fluoromethyl)phenyl)amino)-5-methylisoquinolin-4-yl)(morpholino)methanone]",10 to 1000
4,"Cc1c(Cl)cccc1Nc1ncc(C(=O)N2CCOCC2)c2c(C)cccc12 [Example-87, (1-((3-Chloro-2-methylphenyl)amino)-5-methylisoquinolin-4-yl)(morpholino)methanone]",< 10
5,"O=C(c1ccc(Nc2cccc(C(F)(F)F)c2)c2ccccc12)N1CCOCC1 [Example-201, Morpholino(4-((3-(trifluoromethyl)phenyl)amino)naphthalen-1-yl)methanone]",< 10
6,"CCN(C)C(=O)c1cnc(Nc2cccc(Cl)c2Cl)c2cccc(Cl)c12 [compound 363, 5-Chloro-1-((2,3-dichlorophenyl)amino)-N-ethyl-N-methyl isoquinolin-4-carboxamide]",< 10
7,"Cc1c(Nc2ncc(C(=O)N(C)C)c3c(Cl)cccc23)cccc1C(F)(F)F [compound 329, 5-Chloro-N,N-dimethyl-1-((2-methyl-3-(trifluoromethyl)phenyl)amino)isoquinolin-4-carboxamide]",< 10
8,"CCN(CC)C(=O)c1cnc(Nc2cccc(Cl)c2F)c2cccc(C)c12 [compound 282, 1-((3-Chloro-2-fluorophenyl)amino)-N,N-diethyl-5-methyl isoquinolin-4-carboxamide]",10 to 1000
9,"Cc1c(F)cccc1Nc1ncc(C(=O)N2CCCCC2)c2c(C)cccc12 [Example-96, (1-((3-Fluoro-2-methylphenyl)amino)-5-methylisoquinolin-4-yl)(piperidin-1-yl)methanone]",< 10
10,"CCN(CC)C(=O)c1cnc(Nc2cccc(C(F)(F)F)c2F)c2cccc(C)c12 [compound 277, N,N-Diethyl-1-((2-fluoro-3-(trifluoromethyl)phenyl)amino)-5-methyl isoquinolin-4-carboxamide]",< 10
11,"Cc1cccc2c(Nc3cccc(C(F)(F)F)c3)ncc(C(=O)N3CCCCC3)c12 [Example-23, (5-Methyl-1-(((3-trifluoromethyl)phenyl)amino)isoquinolin-4-yl)(piperidin-1-yl)methanone]",< 10
12,"CCN(CC)C(=O)c1cnc(Nc2cccc(Cl)c2C)c2cccc(Cl)c12 [compound 322, 5-Chloro-1-((3-chloro-2-methylphenyl)amino)-N,N-diethyl isoquinolin-4-carboxamide]",< 10
13,"CCN(C)C(=O)c1ccc(Nc2cccc(C(F)(F)F)c2F)c2cccc(C)c12 [compound 413, N-Ethyl-4-((2-fluoro-3-(trifluoromethyl)phenyl)amino)-N,8-dimethyl-1-naphthamide]",< 10
14,"CCN(C)C(=O)c1cnc(Nc2cccc(C(F)(F)F)c2C)c2cccc(Cl)c12 [compound 331, 5-Chloro-N-ethyl-N-methyl-1-((2-methyl-3-(trifluoromethyl)phenyl)amino)isoquinolin-4-carboxamide]",< 10
15,"Cc1cccc2c(Nc3cccc(Cl)c3F)ncc(C(=O)N3CC4CC(C3)O4)c12 [Example-61, 6-Oxa-3-azabicyclo[3.1.1]heptan-3-yl(1-((3-chloro-2-fluorophenyl)amino)-5-methylisoquinolin-4-yl)methanone]",< 10

# Same assay, conditions: CHO-hCB2 cells, cAMP, forskolin 10 μM, agonist testing; read-out: EC50 Range
row,EC50 [nM],SMILES
1,10 to 1000,"CN(C)C(=O)c1ccc(Nc2cccc(F)c2C(F)(F)F)c2cccc(Cl)c12 [Example-469, 8-Chloro-4-((3-fluoro-2-(trifluoromethyl)phenyl)amino)-N,N-dimethyl-1-naphthamide]"
2,10 to 1000,"CC(C)N(C)C(=O)c1cnc(Nc2cccc(F)c2C(F)(F)F)c2cccc(Cl)c12 [compound 381, 5-Chloro-1-((3-fluoro-2-(trifluoromethyl)phenyl)amino)-N-isopropyl-N-methylisoquinolin-4-carboxamide]"
3,< 10,"Cc1cccc2c(Nc3ccc(Cl)cc3Cl)ncc(C(=O)N3CCOCC3)c12 [Example-90, (1-((2,4-Dichlorophenyl)amino)-5-methylisoquinolin-4-yl)(morpholino)methanone]"
4,< 10,"Cc1cccc(Nc2ccc(C(=O)N3CCOCC3)c3c(C)cccc23)c1 [Example-150, (8-Methyl-4-(m-tolylamino)naphthalen-1-yl)(morpholino)methanone]"
5,< 10,"Cc1cccc2c(Nc3cccc(CF)c3)ncc(C(=O)N3CCCCC3)c12 [Example-37, (1-((3-(Fluoromethyl)phenyl)amino)-5-methylisoquinolin-4-yl)(piperidin-1-yl)methanone]"
6,< 10,"Cc1cccc2c(Nc3cc(F)c(F)cc3F)ncc(C(=O)N3CCCCC3)c12 [Example-28, (1-((2,4,5-Trifluorophenyl)amino)-5-methylisoquinolin-4-yl)(piperidin-1-yl)methanone]"
7,10 to 1000,"Cc1cccc2c(Nc3ccc(F)cc3)ncc(C(=O)N3CCOCC3)c12 [Example-5, (1-((4-Fluorophenyl)amino)-5-methylisoquinolin-4-yl)(morpholino)methanone]"
8,< 10,"COc1cccc(Nc2ccc(C(=O)N3CCCCC3)c3c(C)cccc23)c1 [Example-161, (4-((3-Methoxyphenyl)amino)-8-methylnaphthalen-1-yl)(piperidin-1-yl)methanone]"
9,10 to 1000,"CC1COCC(C)N1C(=O)c1ccc(Nc2cc(F)cc(F)c2)c2ccccc12 (centres unmarked) [Example-190, (4-((3,5-Difluorophenyl)amino)naphthalen-1-yl)(3,5-dimethylmorpholino)methanone]"
10,< 10,"CCc1cccc2c(Nc3cccc(F)c3F)ncc(C(=O)N3CCCCC3)c12 [Example-124, (1-((2,3-Difluorophenyl)amino)-5-ethylisoquinolin-4-yl)(piperidin-1-yl)methanone]"
11,< 10,"Cc1cccc2c(Nc3cccc(F)c3F)ncc(C(=O)N3CCCCC3)c12 [Example-33, (1-((2,3-Difluorophenyl)amino)-5-methylisoquinolin-4-yl)(piperidin-1-yl)methanone]"
12,< 10,"CN(C)C(=O)c1cnc(Nc2cccc(C(F)(F)F)c2F)c2cccc(Cl)c12 [compound 330, 5-Chloro-1-((2-fluoro-3-(trifluoromethyl)phenyl)amino)-N,N-dimethylisoquinolin-4-carboxamide]"
13,< 10,"Cc1c(F)cccc1Nc1ncc(C(=O)N2CC3CC3C2)c2c(C)cccc12 (centres unmarked) [Example-77, 3-Azabicyclo[3.1.0]hexan-3-yl(1-((3-fluoro-2-methylphenyl)amino)-5-methylisoquinolin-4-yl)methanone]"
14,< 10,"CCN(C)C(=O)c1cnc(Nc2cccc(F)c2C(F)(F)F)c2cccc(Cl)c12 [compound 335, 5-Chloro-N-ethyl-1-((3-fluoro-2-(trifluoromethyl)phenyl)amino)-N-methylisoquinolin-4-carboxamide]"
15,< 10,"COC(=O)c1cccc(Nc2ccc(C(=O)N3CCCCC3)c3c(C)cccc23)c1C [compound 409, Methyl 2-methyl-3-((5-methyl-4-(piperidin-1-carbonyl)naphthalen-1-yl)amino)benzoate]"
16,< 10,"CCN(CC)C(=O)c1cnc(Nc2cccc(C(=O)OC)c2C)c2cccc(Cl)c12 [compound 249, Methyl 2-methyl-3-((5-chloro-4-(diethylcarbamoyl)isoquinolin-1-yl)amino)benzoate]"
17,< 10,"Cc1cccc2c(Nc3cc(F)cc(F)c3)ncc(C(=O)N3CCCCC3)c12 [Example-24, (1-((3,5-Difluorophenyl)amino)-5-methylisoquinolin-4-yl)(piperidin-1-yl)methanone]"
18,< 10,"CCN(C)C(=O)c1ccc(Nc2cccc(Cl)c2C)c2cccc(C)c12 [compound 456, 4-((3-Chloro-2-methylphenyl)amino)-N-ethyl-N,8-dimethyl-1-naphthamide]"
19,< 10,"Cc1cccc2c(Nc3ccc(F)c(C(F)(F)F)c3)ncc(C(=O)N3CCOCC3)c12 [Example-6, (1-((4-Fluoro-3-(trifluoromethyl)phenyl)amino)-5-methylisoquinolin-4-yl)(morpholino)methanone]"
20,< 10,"COC(=O)c1cccc(Nc2ccc(C(=O)N3CCCCC3)c3c(C)cccc23)c1 [compound 407, Methyl 3-((5-methyl-4-(piperidin-1-carbonyl)naphthalen-1-yl)amino) benzoate]"
21,< 10,"CN(C)C(=O)c1cnc(Nc2cccc(C(F)(F)F)c2Cl)c2cccc(Cl)c12 [compound 317, 5-Chloro-1-((2-chloro-3-(trifluoromethyl)phenyl)amino)-N,N-di methylisoquinolin-4-carboxamide]"
22,< 10,"CCN(CC)C(=O)c1ccc(Nc2cccc(C(=O)OC)c2C)c2cccc(C)c12 [compound 411, Methyl 2-methyl-3-((5-methyl-4-(diethylcarbamoyl)naphthalen-1-yl)amino)benzoate]"
23,< 10,"O=C(c1cnc(Nc2cccc(C(F)(F)F)c2F)c2cccc(C3CC3)c12)N1CCOCC1 [Example-119, (5-Cyclopropyl-1-((2-fluoro-3-(trifluoromethyl)phenyl)amino)isoquinolin-4-yl)(morpholino)methanone]"
